# In article PMC7748244 (ACS Infectious Diseases, 2020):
# Target: T1, PfJmj3 (Plasmodium falciparum, UniProt Q8IIE4)
# T1 sequence (Q8IIE4 1-446): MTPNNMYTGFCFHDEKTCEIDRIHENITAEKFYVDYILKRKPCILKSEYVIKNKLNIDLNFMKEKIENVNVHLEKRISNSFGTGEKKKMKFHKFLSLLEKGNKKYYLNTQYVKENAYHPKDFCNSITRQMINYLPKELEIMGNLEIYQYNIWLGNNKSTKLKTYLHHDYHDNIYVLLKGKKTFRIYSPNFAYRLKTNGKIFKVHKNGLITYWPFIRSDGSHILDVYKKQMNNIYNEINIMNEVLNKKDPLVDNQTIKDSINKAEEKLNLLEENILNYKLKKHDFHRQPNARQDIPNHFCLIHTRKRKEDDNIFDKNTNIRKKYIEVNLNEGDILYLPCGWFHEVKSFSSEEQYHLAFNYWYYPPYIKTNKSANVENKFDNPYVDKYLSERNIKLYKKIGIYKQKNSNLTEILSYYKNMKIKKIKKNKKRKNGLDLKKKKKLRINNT
# Experiment: Succinate-Glo luciferase-coupled assay
# Format: biochemical
row,IC50 [nM],Structure (SMILES)
1,2600,Clc1ccc(N/N=C(\c2ccccc2)c2ccccn2)nc1 [JIB-04 E]
2,3300,CN(C)CCCNC(=O)c1ccc(-c2cc(O)c3ncccc3c2)cc1 [ML324]
3,2400,CC(C)C(=O)NC(c1ccco1)c1ccc2cccnc2c1O (stereo not drawn) [SD-70]
